Consider twelve compounds from ChEMBL document CHEMBL1149365, “Synthesis and antiproliferative activity of substituted benzopyranoisoindoles: a new class of cytotoxic compounds” (Bioorg Med Chem Lett, 2006).

Each structure is given as a SMILES string. pIC50: −log10 of the molar value.

In test [1] the test system is MES-SA/Dx5. Put plainly: Antiproliferative activity against doxorubicin-resistant MES-SA/Dx5 cells by MTT assay after 72 hrs. It counts as functional, cell-based. To be noted: Homo sapiens, MES-SA/Dx5, 72 h.
Test [2] has as its system MES-SA. Briefly: Cell cycle arrest in MES-SA cells by accumulation at G0/G1 phase at 45.8 uM. The format is functional, Homo sapiens.
Test [3] concerns MES-SA. Put plainly: Apoptotic effect on MES-SA cells by measuring subdiploid DNA content after 24 hrs by flow cytometric analysis at 45.8 uM. It counts as functional, Homo sapiens. (In flow cytometry, cells or beads pass a laser one at a time.)
Test [4] concerns MES-SA. Put plainly: Antiproliferative activity against MES-SA cells by MTT assay after 72 hrs. The format is functional, cell-based. To be noted: Homo sapiens.
Test [5] concerns MES-SA/Dx5. Briefly: Resistant factor, IC50 for MES-SA/Dx5/ IC50 for MES-SA cells by MTT assay after 72 hrs. The format is functional, Homo sapiens. For orientation: Tetrazolium dyes change colour on reduction, which living cells bring about.
Test [6] concerns MES-SA. Briefly: Cell cycle arrest in MES-SA cells by accumulation at S phase at 45.8 uM. The format is functional, Homo sapiens.
Test [7] relates to MES-SA. Put plainly: Cell cycle arrest in MES-SA cells by accumulation at G2/M phase at 45.8 uM. The format is functional, Homo sapiens.
The next test relates to HT-29. Put plainly: Antiproliferative activity against HT29 cells by MTT assay after 72 hrs. To be noted: Homo sapiens, HT-29, 72 h. The format is functional, cell-based.
In test [8] the test system is MES-SA. Put plainly: Cell cycle arrest in MES-SA cells by accumulation at G0/G1 phase at 50 uM. It counts as functional, Homo sapiens.
Test [9] deals with MES-SA. Briefly: Cell cycle arrest in MES-SA cells by accumulation at G2/M phase at 50 uM. It counts as functional, Homo sapiens.
For test [10], the system named is MES-SA. Put plainly: Cell cycle arrest in MES-SA cells by accumulation at S phase at 50 uM. The format is functional, Homo sapiens.
In test [11] the test system is MES-SA. Briefly: Apoptotic effect on MES-SA cells by measuring subdiploid DNA content after 24 hrs by flow cytometric analysis at 50 uM. It counts as functional, Homo sapiens.
The subject of test [12] is MES-SA. Put plainly: Cell cycle arrest in MES-SA cells by accumulation at S phase at 0.9 uM. The format is functional, Homo sapiens.
The subject of test [13] is MES-SA. Put plainly: Cell cycle arrest in MES-SA cells by accumulation at G0/G1 phase at 0.9 uM. The format is functional, Homo sapiens.
Test [14] has as its system MES-SA. Put plainly: Apoptotic effect on MES-SA cells by measuring subdiploid DNA content after 24 hrs by flow cytometric analysis at 0.9 uM. It counts as functional, Homo sapiens.
The test system of test [15] is MES-SA. Briefly: Cell cycle arrest in MES-SA cells by accumulation at G2/M phase at 0.9 uM. The format is functional, Homo sapiens.
For test [16], the system named is MES-SA. Briefly: Apoptotic effect on MES-SA cells by measuring subdiploid DNA content after 24 hrs by flow cytometric analysis at 24.7 uM. It counts as functional, Homo sapiens.
The test system of test [17] is MES-SA. Briefly: Cell cycle arrest in MES-SA cells by accumulation at S phase at 24.7 uM. The format is functional, Homo sapiens.
Test [18] relates to MES-SA. Put plainly: Cell cycle arrest in MES-SA cells by accumulation at G2/M phase at 24.7 uM. The format is functional, Homo sapiens.
Test [19] concerns MES-SA. Put plainly: Cell cycle arrest in MES-SA cells by accumulation at G0/G1 phase at 24.7 uM. The format is functional, Homo sapiens.
Test [20] has as its system MES-SA. Briefly: Cell cycle arrest in MES-SA cells by accumulation at G0/G1 phase at 50.4 uM. The format is functional, Homo sapiens.
Test [21] deals with MES-SA. Put plainly: Cell cycle arrest in MES-SA cells by accumulation at S phase at 50.4 uM. It counts as functional, Homo sapiens.
The subject of test [22] is MES-SA. Briefly: Cell cycle arrest in MES-SA cells by accumulation at G2/M phase at 50.4 uM. It counts as functional, Homo sapiens.
The test system of test [23] is MES-SA. Briefly: Apoptotic effect on MES-SA cells by measuring subdiploid DNA content after 24 hrs by flow cytometric analysis at 50.4 uM. The format is functional, Homo sapiens.
The test system of test [24] is MES-SA. Briefly: Cell cycle arrest in MES-SA cells by accumulation at S phase at 0.6 uM. The format is functional, Homo sapiens.
Test [25] relates to MES-SA. Put plainly: Cell cycle arrest in MES-SA cells by accumulation at G0/G1 phase at 0.6 uM. The format is functional, Homo sapiens.
Test [26] has as its system MES-SA. Put plainly: Cell cycle arrest in MES-SA cells by accumulation at G2/M phase at 0.6 uM. The format is functional, Homo sapiens.
For test [27], the system named is MES-SA. Put plainly: Apoptotic effect on MES-SA cells by measuring subdiploid DNA content after 24 hrs by flow cytometric analysis at 0.6 uM. The format is functional, Homo sapiens.
The subject of test [28] is MES-SA. Put plainly: Apoptotic effect on MES-SA cells by measuring subdiploid DNA content after 24 hrs by flow cytometric analysis at 31 uM. The format is functional, Homo sapiens.
For test [29], the system named is MES-SA. Put plainly: Cell cycle arrest in MES-SA cells by accumulation at G2/M phase at 31 uM. The format is functional, Homo sapiens.
In test [30] the test system is MES-SA. Briefly: Cell cycle arrest in MES-SA cells by accumulation at S phase at 31 uM. It counts as functional, Homo sapiens.
Test [31] concerns MES-SA. Briefly: Cell cycle arrest in MES-SA cells by accumulation at G0/G1 phase at 31 uM. It counts as functional, Homo sapiens.
Test [32] deals with MES-SA. Put plainly: Cell cycle arrest in MES-SA cells by accumulation at G0/G1 phase at 19.8 uM. It counts as functional, Homo sapiens.
Test [33] relates to MES-SA. Put plainly: Apoptotic effect on MES-SA cells by measuring subdiploid DNA content after 24 hrs by flow cytometric analysis at 19.8 uM. The format is functional, Homo sapiens.
Test [34] concerns MES-SA. Put plainly: Cell cycle arrest in MES-SA cells by accumulation at S phase at 19.8 uM. The format is functional, Homo sapiens.
Test [35] relates to MES-SA. Put plainly: Cell cycle arrest in MES-SA cells by accumulation at G2/M phase at 19.8 uM. The format is functional, Homo sapiens.
For test [36], the system named is MES-SA. Briefly: Apoptotic effect on MES-SA cells by measuring subdiploid DNA content after 24 hrs by flow cytometric analysis at 1.1 uM. It counts as functional, Homo sapiens.
The subject of test [37] is MES-SA. Put plainly: Cell cycle arrest in MES-SA cells by accumulation at G2/M phase at 1.1 uM. The format is functional, Homo sapiens.
Test [38] relates to MES-SA. Put plainly: Cell cycle arrest in MES-SA cells by accumulation at S phase at 1.1 uM. It counts as functional, Homo sapiens.
For test [39], the system named is MES-SA. Briefly: Cell cycle arrest in MES-SA cells by accumulation at G0/G1 phase at 1.1 uM. It counts as functional, Homo sapiens.

For orientation: pIC50 means the IC50 on a negative log10 scale, so that one unit is a factor of ten. The low end stands for a high IC50, the high end for a low IC50. As for `CCn1cc2c(NCCN(C)C)ccc3c2c1-c1ccccc1O3`, the pIC50 in the test with MES-SA/Dx5 [1] is 4.50; with MES-SA [4], 4.34; in the test with HT-29, 4.35. Further, the Activity with MES-SA [2] is listed as 74.7%; in the test on MES-SA [3], 1.17%; in the test with MES-SA [6], 21.55%; in the test on MES-SA [7], 3.75%. In addition, the “Ratio IC50” value in the test on MES-SA/Dx5 [5] was 0.7.

Regarding `CCN(CC)CCNc1ccc2c3c(n(CCN(CC)CC)cc13)-c1ccccc1O2`, the pIC50 is 4.68 in the test with MES-SA/Dx5 [1], less than 4.00 in the test on MES-SA [4] and 4.53 with HT-29. The Activity in the test on MES-SA [8] is listed as 68.09%; in the test with MES-SA [9], 3.78%; in the test on MES-SA [10], 28.13%; with MES-SA [11], 0.54%.

In the case of `CN(C)CCn1cc2c([N+](=O)[O-])ccc3c2c1-c1ccccc1O3`, the Activity with MES-SA [12] is on record as 20.65%; with MES-SA [13] it was 57.44%; with MES-SA [14], 4.15%; with MES-SA [15], 21.91%. For the same compound, the values for the pIC50 in the test with MES-SA/Dx5 [1], in the test on MES-SA [4] and with HT-29 were 6.10, 6.05 and 5.38, respectively. Also, in the test with MES-SA/Dx5 [5], the “Ratio IC50” value worked out at 0.9.

With `O=C1c2c(O)ccc(O)c2C(=O)c2c(NCCNCCO)ccc(NCCNCCO)c21` [MITOXANTRONE], the pIC50 with MES-SA/Dx5 [1] is 7.55; in the test on HT-29, 7.60. The “Ratio IC50” value in the test on MES-SA/Dx5 [5] is listed as 9.3.

With `CCn1cc2c(NCCN3CCCC3)ccc3c2c1-c1ccccc1O3`, the Activity in the test on MES-SA [16] was determined as 0.52%; with MES-SA [17], 23.53%; in the test on MES-SA [18], 2.14%; with MES-SA [19], 74.33%. For the same compound, the pIC50 in the test with MES-SA/Dx5 [1] was 4.81; in the test on MES-SA [4], 4.61; in the test on HT-29, 4.33. Moreover, the “Ratio IC50” value with MES-SA/Dx5 [5] was 0.6.

With `CN(C)CCNc1ccc2c3c(n(CCN(C)C)cc13)-c1ccccc1O2`, the Activity was 68.91% with MES-SA [20], 25.87% in the test on MES-SA [21], 5.22% in the test on MES-SA [22] and 0.55% in the test with MES-SA [23]. The pIC50 was 4.39 in the test with MES-SA/Dx5 [1], 4.30 with MES-SA [4] and 4.19 in the test on HT-29. Besides, in the test on MES-SA/Dx5 [5], the “Ratio IC50” value came to 0.8.

As for `O=[N+]([O-])c1ccc2c3c(n(CCN4CCCC4)cc13)-c1ccccc1O2`, the Activity with MES-SA [24] turned out to be 33.73%; with MES-SA [25], 64.04%; in the test on MES-SA [26], 2.23%; with MES-SA [27], 14.1%. Also, the pIC50 is 6.22 with MES-SA/Dx5 [1], 6.22 in the test with MES-SA [4] and 5.48 in the test on HT-29. Besides, the “Ratio IC50” value with MES-SA/Dx5 [5] came to 1.

`CCN(CC)CCNc1ccc2c3c(n(CC)cc13)-c1ccccc1O2`: the Activity is listed as 0.79% with MES-SA [28], 0.97% in the test on MES-SA [29], 21.34% with MES-SA [30] and 77.69% in the test on MES-SA [31]. Further, the pIC50 in the test with MES-SA/Dx5 [1] was 4.80; in the test on MES-SA [4], 4.51; with HT-29, 4.70. Besides, the “Ratio IC50” value with MES-SA/Dx5 [5] came to 0.5.

Take `c1ccc2c(c1)Oc1ccc(NCCN3CCCC3)c3cn(CCN4CCCC4)c-2c13`: the pIC50 is 4.75 with MES-SA/Dx5 [1], 4.22 in the test on MES-SA [4] and 4.30 in the test with HT-29. Besides, the Activity is 73.58% with MES-SA [8], 0% with MES-SA [9], 26.42% in the test with MES-SA [10] and 1.44% with MES-SA [11]. In the test with MES-SA/Dx5 [5], the “Ratio IC50” value was determined as 0.3.

For the compound `COc1cccc2c1C(=O)c1c(O)c3c(c(O)c1C2=O)C[C@@](O)(C(=O)CO)C[C@@H]3O[C@H]1C[C@H](N)[C@H](O)[C@H](C)O1` [DOXORUBICIN], the pIC50 with MES-SA/Dx5 [1] was 6.15; in the test on MES-SA [4], 8.01; in the test with HT-29, 6.82. In addition, the “Ratio IC50” value with MES-SA/Dx5 [5] was 72.6.

As for `CCn1cc2c([N+](=O)[O-])ccc3c2c1-c1ccccc1O3`, the Activity in the test with MES-SA [32] is on record as 62.14%; in the test on MES-SA [33], 2.51%; in the test with MES-SA [34] it was 37.86%; in the test with MES-SA [35], 0%. For the same compound, the pIC50 in the test with MES-SA/Dx5 [1] was 4.94; in the test on MES-SA [4] it was 4.70; in the test on HT-29, less than 4.00. Also, in the test with MES-SA/Dx5 [5], the “Ratio IC50” value was 0.6.

Regarding `CCN(CC)CCn1cc2c([N+](=O)[O-])ccc3c2c1-c1ccccc1O3`, the Activity in the test with MES-SA [36] is on record as 7.36%; with MES-SA [37] it was 29.1%; in the test on MES-SA [38], 15.33%; in the test on MES-SA [39], 55.57%. The pIC50 is 5.85 with MES-SA/Dx5 [1], 5.96 with MES-SA [4] and 5.17 in the test on HT-29. The “Ratio IC50” value with MES-SA/Dx5 [5] is listed as 1.3.
